Measured values taken from PubChem BioAssay (NCI).
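Grown in 96-well plates, cells were treated for 48 hours with each compound at five concentrations. Insufficient inhibition: endpoint recorded as highest concentration tested. Here, GI50 denotes the concentration required for 50% inhibition of growth. At the TGI there is no net growth.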

Experiments:
Assay in all cases: inhibition of tumour cell growth, NCI panel, 48 h
DU-145 prostate = tested on: DU-145 prostate
HCT-116 colon = tested on: HCT-116 colon
HT29 colon = tested on: HT29 colon
IGROV1 ovarian = tested on: IGROV1 ovarian
M14 melanoma = tested on: M14 melanoma
MCF7 breast = tested on: MCF7 breast
RXF 393 renal = tested on: RXF 393 renal
SNB-19 CNS = tested on: SNB-19 CNS
T-47D breast = tested on: T-47D breast
UO-31 renal = tested on: UO-31 renal

Row | SMILES | TGI (DU-145 prostate) | TGI (HCT-116 colon) | TGI (HT29 colon) | TGI (IGROV1 ovarian) | TGI (M14 melanoma) | TGI (MCF7 breast) | TGI (RXF 393 renal) | TGI (SNB-19 CNS) | TGI (T-47D breast) | TGI (UO-31 renal) | GI50 (DU-145 prostate) | GI50 (HCT-116 colon) | GI50 (HT29 colon) | GI50 (IGROV1 ovarian) | GI50 (M14 melanoma) | GI50 (MCF7 breast) | GI50 (RXF 393 renal) | GI50 (SNB-19 CNS) | GI50 (T-47D breast) | GI50 (UO-31 renal)
1 | O=C(O)CCC(O)=C1S(=O)(=O)OCCOS1(=O)=O | > 100 µM | > 100 µM | > 100 µM | > 100 µM | > 100 µM | > 100 µM | > 100 µM | > 100 µM | > 100 µM | > 100 µM |  |  |  |  |  |  |  |  |  | 
2 | COc1ccc(C2=Nn3c(nnc3-c3ccc(F)c(Cl)c3)SC2)cc1 | > 100 µM | > 100 µM | > 100 µM | > 100 µM | > 100 µM | > 100 µM | > 100 µM | > 100 µM | > 100 µM | > 100 µM | > 100 µM | 61.6 µM | > 100 µM | > 100 µM | > 100 µM | > 100 µM | > 100 µM | > 100 µM | > 100 µM | > 100 µM
3 | COc1cc(C[C@H]2COC(=O)[C@]2(O)Cc2ccc(OCc3ccccc3)c(OC)c2)ccc1OCc1ccccc1 | > 100 µM | > 100 µM | > 100 µM | > 100 µM | > 100 µM | > 100 µM | > 100 µM | > 100 µM | > 100 µM | > 100 µM | 85.9 µM | 16.8 µM | 4.16 µM | > 100 µM | 47 µM | 8.17 µM | 40.3 µM | > 100 µM | 12.1 µM | 35.5 µM
4 | O=CNC(Cc1cnc[nH]1)C(=O)O (stereo not given) | > 100 µM | > 100 µM | > 100 µM | > 100 µM | > 100 µM | > 100 µM | > 100 µM | > 100 µM | > 100 µM | > 100 µM |  |  |  |  |  |  |  |  |  | 
5 | COC(=O)CNC(=O)C(=O)c1c(O)c(O)c(C(C)C)c2cc(C)c(-c3c(C)cc4c(C(C)C)c(O)c(O)c(C(=O)C(=O)NCC(=O)OC)c4c3O)c(O)c12 | 7.91 µM | 6.04 µM | 5.36 µM | 8.94 µM | 9.9 µM | 6.11 µM | 8.39 µM | 7.92 µM | 40.9 µM | 6.04 µM | 1.99 µM | 1.79 µM | 1.58 µM | 1.92 µM | 2.09 µM | 1.64 µM | 1.85 µM | 1.53 µM | 5.09 µM | 1.43 µM
6 | Cc1cccc(CNc2c3ccccc3nc3ccccc23)c1 | 11.7 µM | 4.4 µM | 10.1 µM | 6.79 µM | 3.35 µM | 4.88 µM | 3.07 µM | 13 µM | 4.61 µM | 2.62 µM | 3.28 µM | 0.927 µM | 1.7 µM | 2.17 µM | 1.57 µM | 1.9 µM | 1.54 µM | 3.07 µM | 1.83 µM | 1.19 µM
7 | COc1ccc2c(=O)c(-c3cc(OC)c(OC)cc3OC)coc2c1 | > 100 µM | > 100 µM | > 38.3 µM | > 100 µM | > 100 µM | > 100 µM | 24.2 µM | > 100 µM | > 100 µM | > 100 µM |  |  |  |  |  |  |  |  |  | 
8 | OCc1c(-c2cccs2)oc(-c2cccs2)c1CO | > 100 µM | > 100 µM | > 100 µM | > 100 µM | > 100 µM | > 100 µM | 78.5 µM | > 100 µM | > 100 µM | > 100 µM | 67.9 µM | 44.1 µM | 41 µM | 58.3 µM | 47.8 µM | 1.62 µM | 22.7 µM | 67.5 µM | 17.3 µM | 50.5 µM
9 | CN(C)S(=O)(=O)c1cccc(C(=O)Nc2nc(-c3ccc(F)c(F)c3)cs2)c1 | > 100 µM | > 100 µM | > 100 µM | > 96.4 µM | > 100 µM | > 65 µM | > 81.5 µM | > 100 µM | > 100 µM | > 100 µM | 25.9 µM | 7.62 µM | 14 µM | 28 µM | 23.5 µM | 6.01 µM | 12.4 µM | 35.4 µM | 3.77 µM | 9.09 µM
10 | CN[C@@H](C)C(=O)N[C@H](C(=O)N1CCC[C@H]1c1nc(C(=O)c2ccc(F)cc2)cs1)C1CCCCC1 | > 100 µM | > 95.5 µM | 42.8 µM | > 100 µM | 38.4 µM | 32.8 µM | 16.3 µM | > 100 µM | 77.8 µM | > 94.3 µM | 44.5 µM | 27 µM | 20.5 µM | 33.9 µM | 19.4 µM | 16.1 µM | 1.94 µM | 53.9 µM | 20.4 µM | 36.1 µM
11 | COc1ccc(-c2nc(NC(=O)CS(=O)(=O)c3ccc(F)cc3)sc2C)cc1 | > 100 µM | 38.7 µM | 39.4 µM | > 100 µM | 55.7 µM | > 100 µM | 49.7 µM | > 100 µM | 80.6 µM | 92 µM | 34.5 µM | 17.5 µM | 11 µM | 28.2 µM | 19.1 µM | 16.3 µM | 15.6 µM | 33.4 µM | 21.7 µM | 18.9 µM
12 | CCN(Cc1cc(Cl)cc(C)c1O)Cc1c(O)ccc2ccccc12 | 34.7 µM | 33.1 µM | 28.1 µM | 31.1 µM | 35.9 µM | 39.1 µM | 31.2 µM | 40.9 µM | 35.8 µM | 30.4 µM |  |  |  |  |  |  |  |  |  | 
13 | CCCC(=O)Oc1ccc(/C(=C(\C)c2ccc(Cl)cc2)c2ccc(OCCN(CC)CC)cc2)cc1 | 12.4 µM | 3.21 µM | 4.06 µM | 21.6 µM | 4.36 µM | 3.47 µM | 3.55 µM | 7.29 µM | 4.88 µM | 3.11 µM | 3.46 µM | 1.55 µM | 1.85 µM | 6.99 µM | 1.9 µM | 0.117 µM | 1.72 µM | 2.81 µM | 1.39 µM | 1.43 µM
14 | O=NNc1ccc(-c2ccccc2)cn1 | 9.78 µM | 29.9 µM | 99.6 µM | > 81.3 µM | 39.2 µM | > 23.6 µM | 12.7 µM | > 69 µM | > 77.9 µM | 58 µM |  |  |  |  |  |  |  |  |  | 
15 | O=C1c2ccccc2C(=O)c2c1ccc1conc21 | 7.07 µM | 3.51 µM | 13 µM | 5.88 µM | 5.7 µM | 2.65 µM | 5.64 µM | 11.5 µM | 2.02 µM | 9.53 µM |  |  |  |  |  |  |  |  |  | 
